According to patent US7288547B2, “CDK-inhibitory 2-heteroaryl-pyrimidines, their production and use as pharmaceutical agents” (Schering AG, priority 2002, dated 2007):
Read-outs that look alike come from different tables or passages of the source.

How the values were obtained:
MCF7 = experiment: Proliferation Assay (crystal violet); assay type: cell-based, human
Protocol: Cultivated human tumor cells (as indicated) were flattened out at a density of 5000 cells/measuring point in a 96-well multititer plate in 200 μl of the corresponding growth medium. After 24 hours, the cells of one plate (zero-point plate) were colored with crystal violet (see below), while the medium of the other plates was replaced by fresh culture medium (200 μl), to which the test substances were added in various concentrations (0 μm, as well as in the range of 0.01-30 μm; the final concentration of the solvent dimethyl sulfoxide was 0.5%). The cells were incubated for 4 days in the presence of test substances. The cell proliferation was determined by coloring the cells with crystal violet: the cells were fixed by adding 20 μl/measuring point of a 11% glutaric aldehyde solution for 15 minutes at room temperature. After three washing cycles of the fixed cells with water, the plates were dried at room temperature. The cells were colored by adding 100 μl/measuring point of a 0.1% crystal violet solution (pH was set at 3 by adding acetic acid). After three washing cycles of the colored cells with water, the plates were dried at room temperature. The dye was dissolved by adding 100 μl/measuring point of a 10% acetic acid solution. The extinction was determined by photometry at a wavelength of 595 nm. The change of cell growth, in percent, was calculated by standardization of the measured values to the extinction values of the zero-point plate (=0%) and the extinction of the untreated (0 μm) cells (=100%).

CDK2/CycE = target: T1, CDK2/CycE (Homo sapiens, UniProt P24941); experiment: CDK2/CycE Kinase Assay; assay type: biochemical
T1 construct: GST; purchased Proquinase Company, Freiburg; host or cells: baculovirus-infected insect cells (Sf9)
Protocol: Recombinant CDK2- and CycE-GST-fusion proteins, purified from baculovirus-infected insect cells (Sf9), were purchased by the Proquinase Company, Freiburg. Histone IIIS, which was used as a kinase substrate, was purchased by the Sigma Company.
The reaction was stopped by adding EDTA solution (250 mmol, pH 8.0, 14 μl/measuring point).
From each reaction batch, 10 μl was applied to P30 filter strips (Wallac Company), and non-incorporated ^33P-ATP was removed by subjecting the filter strips to three washing cycles for 10 minutes each in 0.5% phosphoric acid. After the filter strips were dried for one hour at 70° C., the filter strips were covered with scintillator strips (MeltiLex™ A, Wallac Company) and baked for one hour at 90° C. The amount of incorporated ^33P (substrate phosphorylation) was determined by scintillation measurement in a gamma-radiation measuring device (Wallac).

[1] = Homo sapiens, MCF7, MCF-7 cells, comparison with known reference compounds, read-out: MCF-7 IC50
[2] = read-out: Inhibition IC50 CDK2/CycE
[3] = Homo sapiens, MCF7, 96 h, MCF7 cells, 4 days incubation, read-out: Proliferation IC50 MCF7

Row | SMILES | IC50 (MCF7; [1]) | IC50 (CDK2/CycE; [2]) | IC50 (MCF7; [3]) | IC50 (MCF7; MCF7 cells, 4 days incubation, read-out: Proliferation IC50 MCF7) | IC50 (CDK2/CycE; comparison with known reference compounds, read-out: CDK2/CycE IC50)
1 | O=C1Cc2c([nH]c3ccc([N+](=O)[O-])cc23)-c2ccccc2N1 [Alsterpaullone, reference compound] | 1200 nM | – | – | – | –
2 | CC(C)[C@H](CO)Nc1nc(Nc2cc(S(N)(=O)=O)sc2Cl)ncc1Br [Example 1.8] | – | 87 nM | 3000 nM | – | –
3 | CC(C)[C@H](CO)Nc1nc(Nc2csc(S(N)(=O)=O)c2)ncc1Br [Example 1.9] | – | 50 nM | – | – | –
4 | CC(C)[C@H](CO)Nc1nc(Nc2ccc(S(N)(=O)=O)nc2)ncc1Br [Example 1.11] | – | 40 nM | 1200 nM | – | –
5 | COC[C@H](C)Nc1nc(Nc2ccc(S(N)(=O)=O)nc2)ncc1Br [Example 1.16] | – | 36 nM | 2000 nM | – | –
6 | CC(CO)N(C)c1nc(Nc2ccc(S(N)(=O)=O)nc2)ncc1Br (centres unmarked) [Example 3.3] | – | 36 nM | 620 nM | – | –
7 | CC(Nc1nc(Nc2ccc(S(N)(=O)=O)nc2)ncc1Br)C(C)(C)O (centres unmarked) [Example 3.4] | – | 58 nM | 840 nM | – | –
8 | CC(O)C(C)Sc1nc(Nc2ccc(S(N)(=O)=O)nc2)ncc1Br (centres unmarked) [Example 4.3] | – | 34 nM | 230 nM | – | –
9 | CCC(Sc1nc(Nc2ccc(S(N)(=O)=O)nc2)ncc1Br)C(C)O (centres unmarked) [Example 4.6, 5-[5-bromo-4-(1-ethyl-2-hydroxy-propylsulfanyl)-pyrimidin-2-ylamino]-pyridine-2-sulfonic acid amide] | – | 74 nM | 630 nM | – | –
10 | O=C1Cc2c([nH]c3ccc(Br)cc23)-c2ccccc2N1 [Kenpaullone, reference compound] | 6000 nM | – | – | – | –
11 | Cn1cnc2c(NCc3ccccc3)nc(NCCO)nc21 [Olomoucine, reference compound] | 30000 nM | – | – | – | –
12 | CC(C)[C@H](CO)Nc1nc(Nc2cccc(Cl)c2)c2ncn(C(C)C)c2n1 [Purvalanol A, reference compound] | 2000 nM | – | – | – | 10 nM

Further lines, results first:

Row | IC50 (MCF7; [1]) | IC50 (CDK2/CycE; [2]) | IC50 (MCF7; [3]) | IC50 (MCF7; MCF7 cells, 4 days incubation, read-out: Proliferation IC50 MCF7) | IC50 (CDK2/CycE; comparison with known reference compounds, read-out: CDK2/CycE IC50) | SMILES
13 | – | 6 nM | – | – | – | C[C@H](CO)Nc1nc(Nc2ccc(S(N)(=O)=O)nc2)ncc1Br [Example 1.7]
14 | – | 22 nM | 240 nM | – | – | CC(O)C(C)Nc1nc(Nc2ccc(S(N)(=O)=O)nc2)ncc1Br (centres unmarked) [Example 1.12]
15 | – | 8 nM | – | < 100 nM | – | C[C@@H](O)[C@@H](C)Nc1nc(Nc2ccc(S(N)(=O)=O)nc2)ncc1Br [Example 1.13]
16 | – | 17 nM | 870 nM | – | – | CC(=O)C(C)Nc1nc(Nc2ccc(S(N)(=O)=O)nc2)ncc1Br (centres unmarked) [Example 1.14]
17 | – | 13 nM | 2000 nM | – | – | CC[C@@H](CO)Nc1nc(Nc2ccc(S(N)(=O)=O)nc2)ncc1Br [Example 1.15]
18 | – | 7 nM | 500 nM | – | – | CC[C@H](CO)Nc1nc(Nc2ccc(S(N)(=O)=O)nc2)ncc1Br [Example 1.17]
19 | – | 12 nM | – | – | – | NS(=O)(=O)c1ccc(Nc2ncc(Br)c(NCC3CC3)n2)cn1 [Example 1.19]
20 | – | 13 nM | 1900 nM | – | – | C[C@H](CO)Nc1nc(Nc2ccc(S(=O)(=O)NCCO)nc2)ncc1Br [Example 1.20]
21 | – | 30 nM | 5300 nM | – | – | NS(=O)(=O)c1ccc(Nc2ncc(Br)c(SCCCCO)n2)cn1 [Example 1.21]
22 | – | < 10 nM | 880 nM | – | – | C[C@H](O)[C@H](C)Nc1nc(Nc2ccc(S(N)(=O)=O)nc2)ncc1Br [Example 3.5]
23 | – | < 10 nM | 100 nM | – | – | C[C@@H](O)[C@@H](C)Nc1nc(Nc2ccc(S(N)(=O)=O)nc2)ncc1Br [Example 3.6]
24 | – | 20 nM | 790 nM | – | – | NS(=O)(=O)c1ccc(Nc2ncc(Br)c(NC3CCCCC3)n2)cn1 [Example 3.12]
25 | – | 16 nM | 300 nM | – | – | CC1CCCCC1Nc1nc(Nc2ccc(S(N)(=O)=O)nc2)ncc1Br (centres unmarked) [Example 3.13]
26 | – | < 10 nM | 610 nM | – | – | CC(CO)Sc1nc(Nc2ccc(S(N)(=O)=O)nc2)ncc1Br (centres unmarked) [Example 4.1]
27 | – | < 10 nM | 260 nM | – | – | CCC(CO)Sc1nc(Nc2ccc(S(N)(=O)=O)nc2)ncc1Br (centres unmarked) [Example 4.2]
28 | – | 25 nM | 2300 nM | – | – | CC(Nc1nc(Nc2ccc(S(N)(=O)=O)nc2)ncc1Br)C(C)NC1CC1 (centres unmarked) [Example 6.0, 5-[5-bromo-4-(2-cyclopropylamino-1-methyl-propylamino)-pyrimidin-2-ylamino]-pyridine-2-sulfonic acid amide]
